# Data: patent publication US8664408B2, “Synthesis process, and crystalline form of 4-{3-[cis-hexahydrocyclopenta[c]pyrrol-2(1H)-yl]proxy}benzamide hydrochloride and pharmaceutical compositions containing it” (Les Laboratoires Servier, priority 2011, dated 2014)
# Assays:
# [1] = dissolution of crystalline form I; type: physicochemical
# From the text: Obtaining this crystalline form has the advantage of allowing especially rapid and efficient filtration and also the preparation of pharmaceutical formulations having a consistent and reproducible composition, which is especially advantageous when those formulations are intended for oral administration.
# [2] = test system: central nervous system; test: pharmacological study
# From the text: Neurodegenerative diseases more especially targeted are Alzheimer's disease, Parkinson's disease, Pick's disease, Korsakoff's disease, Lewy body dementias, frontal and subcortical dementias, frontotemporal dementias and vascular dementias.
# [3] = storage stability of crystalline form I; type: physicochemical; conditions: periods of up to 18 months
# From the text: The form thereby obtained is sufficiently stable to allow its storage for an extended period without particular conditions for temperature, light, humidity or oxygen levels.
smiles,measurement,setting,value
Cl.NC(=O)c1ccc(OCCCN2C[C@H]3CCC[C@H]3C2)cc1 [4-{3-[cis-Hexahydrocyclopenta[c]pyrrol-2(1H)-yl]propoxy}benzamide hydrochloride],dissolution properties,[1],noteworthy properties of immediate dissolution
same,activity on the central nervous system,[2],substantial activity
same,stability on storage,[3]; at 25° C. with a humidity level of 60% in a double bag of polyethylene,very stable
same,stability on storage,[3]; at 30° C. with a humidity level of 65% in a double bag of polyethylene,very stable
same,stability on storage,[3]; at 30° C. with a humidity level of 85% in a double bag of polyethylene,very stable
"NC(=O)c1ccc(OCCCN2C[C@H]3CCC[C@H]3C2)cc1 [form I of its free base, 4-{3-[cis-Hexahydrocyclopenta[c]pyrrol-2(1H)-yl]propoxy}benzamide]",activity on the central nervous system,[2],substantial activity
